The target of this experiment is T1, Probable integral membrane cytochrome D ubiquinol oxidase (Subunit II) CydB (Cytochrome BD-I oxidase subunit II) (Mycobacterium tuberculosis (strain ATCC 25618 / H37Rv), UniProt O06139).
T1 sequence (O06139 whole entry): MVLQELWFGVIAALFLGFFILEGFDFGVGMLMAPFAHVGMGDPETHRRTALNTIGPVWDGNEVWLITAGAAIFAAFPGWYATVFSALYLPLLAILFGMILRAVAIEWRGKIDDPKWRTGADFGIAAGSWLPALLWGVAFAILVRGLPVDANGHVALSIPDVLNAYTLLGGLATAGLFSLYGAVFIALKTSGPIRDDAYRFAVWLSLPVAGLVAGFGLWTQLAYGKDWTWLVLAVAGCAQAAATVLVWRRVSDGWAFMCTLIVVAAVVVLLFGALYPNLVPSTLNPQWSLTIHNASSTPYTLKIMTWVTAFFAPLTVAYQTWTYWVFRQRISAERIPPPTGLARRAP
Kind of experiment: Mtb cytochrome bd inhibition assay.

Regarding `Cc1c(-c2ccc(Cc3ccccc3)cc2)[nH]c2ccccc2c1=O` [US10799494, Compound CK-2-88], the IC50 worked out at 20 nM.

As for `Cc1c(-c2ccc(Oc3ccc(F)cc3)nc2)[nH]c2ccccc2c1=O` [US10799494, Compound CK-3-14], it took 10600 nM to reach half-maximal inhibition (IC50).

Compound `Cc1c(-c2ccc(Oc3ccc(OC(F)(F)F)cc3)nc2)[nH]c2ccccc2c1=O` [US10799494, Compound CK-3-22] displayed an IC50 of 140 nM.

`COc1c(C)c(-c2ccc(Cc3ccccc3)cc2)nc2ccccc12` [US10799494, Compound CK-3-23] returned an IC50 of 3600 nM.

As for `CCOC(=O)c1c(-c2ccc(Cc3ccc(OC(F)(F)F)cc3)cc2)[nH]c2ccccc2c1=O` [US10799494, Compound GN-1710], half-maximal inhibition (IC50) required 250 nM.

`Cc1c(-c2ccc(N3CCCCC3)cc2)[nH]c2cc(F)cc(F)c2c1=O` [US10799494, Compound MTD-403]: the midpoint of inhibition, the IC50, lay at 270 nM.

On to `Cc1c(-c2ccc(-c3ccc(C(F)(F)F)nc3)nc2)[nH]c2ccccc2c1=O` [US10799494, Compound PG-128], for which the midpoint of inhibition, the IC50, lay at 4470 nM.

In turn, `Cc1[nH]c2ccccc2c(=O)c1-c1ccc(Oc2ccc(OC(F)(F)F)cc2)cc1` [US10799494, Compound PG-203] displayed an IC50 of 70 nM.

Regarding `O=c1cc(-c2ccc(Cc3ccc(OC(F)(F)F)cc3)cc2)[nH]c2ccccc12` [US10799494, Compound RKA-70], it took 750 nM to reach half-maximal inhibition (IC50).

The compound `O=c1cc(-c2ccc(Cc3ccc(OC(F)(F)F)cc3)cc2)n(O)c2ccccc12` [US10799494, Compound RKA-73] registered an IC50 of 310 nM.

In the case of `COc1ccc2c(=O)c(C)c(-c3ccc(Oc4ccc(OC(F)(F)F)cc4)nc3)[nH]c2c1` [US10799494, Compound RKA-259], the IC50 stood at 3600 nM.

The compound `Cc1c(-c2ccc(N3CCCCC3)cc2)[nH]c2ccccc2c1=O` [US10799494, Compound RKA-307] came in with an IC50 of 440 nM.

As for `COc1ccc2c(=O)c(C)c(-c3ccc(N4CCCCC4)cc3)[nH]c2c1` [US10799494, Compound RKA-310], the IC50 turned out to be 1400 nM.

Compound `Cc1c(-c2ccc(-c3ccc(OC(F)(F)F)cc3)nc2)[nH]c2ccccc2c1=O` [US10799494, Compound SL-2-25] returned an IC50 of 290 nM.

As to `O=c1cc(-c2cnn(Cc3ccc(OC(F)(F)F)cc3)c2)[nH]c2ccccc12` [US10799494, Compound WDH-1W-5], it took 15800 nM to reach half-maximal inhibition (IC50).

Compound `Cc1c(-c2cnn(Cc3ccc(OC(F)(F)F)cc3)c2)[nH]c2ccccc2c1=O` [US10799494, Compound WDH-2A-9] returned an IC50 of 6500 nM.

`Cc1c(-c2ccc(-c3ccc(C(F)(F)F)cc3)nc2)[nH]c2ccccc2c1=O` [US10799494, Example RKA 142] returned an IC50 of 2020 nM.

`CC(C)c1c(-c2cnn(Cc3ccc(OC(F)(F)F)cc3)c2)[nH]c2ccccc2c1=O` [US10799494, Example WDH-2G-6] displayed an IC50 of 82 nM.

As usually defined, the IC50 is the concentration that inhibits the measured activity by half. A high value points to lower potency.

The values are drawn from BindingDB's records for patent US10799494 (2020).
